According to ChEMBL document CHEMBL4152347 (J Med Chem, 2018):

Tests used:
Details in all cases: in vivo
[1] = Drug metabolism in human plasma assessed as mono-oxidation product formation at 5 mg/kg, po administered via gavage by LC-MS/MS analysis; type: ADME, organism-based
[2] = Drug metabolism in Sprague-Dawley rat plasma assessed as mono-oxidation product formation at 5 mg/kg, po administered via gavage by LC-MS/MS analysis; type: ADME, organism-based
[3] = Drug metabolism in beagle dog plasma assessed as mono-oxidation product formation at 5 mg/kg, po administered via gavage by LC-MS/MS analysis; type: ADME, organism-based, Canis lupus familiaris
[4] = Drug metabolism in cynomolgus monkey plasma assessed as mono-oxidation product formation at 5 mg/kg, po administered via gavage by LC-MS/MS analysis; type: ADME, organism-based, Macaca fascicularis
[5] = Drug metabolism in human plasma assessed as 4-((1R,3aS,5aR,5bR,7aR,11aS,11bR,13aR,13bR)-3a-amino-5a,5b,8,8,11a-pentamethyl-1-(prop-1-en-2-yl)-2,3,3a,4,5,5a,5b,6,7,7a,8,11,11a,11b,12,13,13a,13b-octadecahydro-1H-cyclopenta[a]chrysen-9-yl)benzoic acid formation at 5 mg/kg, po administered via gavage by LC-MS/MS analysis; type: ADME, organism-based
[6] = Drug metabolism in Sprague-Dawley rat plasma assessed as 4-((1R,3aS,5aR,5bR,7aR,11aS,11bR,13aR,13bR)-3a-amino-5a,5b,8,8,11a-pentamethyl-1-(prop-1-en-2-yl)-2,3,3a,4,5,5a,5b,6,7,7a,8,11,11a,11b,12,13,13a,13b-octadecahydro-1H-cyclopenta[a]chrysen-9-yl)benzoic acid formation at 5 mg/kg, po administered via gavage by LC-MS/MS analysis; type: ADME, organism-based
[7] = Drug metabolism in beagle dog plasma assessed as 4-((1R,3aS,5aR,5bR,7aR,11aS,11bR,13aR,13bR)-3a-amino-5a,5b,8,8,11a-pentamethyl-1-(prop-1-en-2-yl)-2,3,3a,4,5,5a,5b,6,7,7a,8,11,11a,11b,12,13,13a,13b-octadecahydro-1H-cyclopenta[a]chrysen-9-yl)benzoic acid formation at 5 mg/kg, po administered via gavage by LC-MS/MS analysis; type: ADME, organism-based, Canis lupus familiaris
[8] = Drug metabolism in cynomolgus monkey plasma assessed as 4-((1R,3aS,5aR,5bR,7aR,11aS,11bR,13aR,13bR)-3a-amino-5a,5b,8,8,11a-pentamethyl-1-(prop-1-en-2-yl)-2,3,3a,4,5,5a,5b,6,7,7a,8,11,11a,11b,12,13,13a,13b-octadecahydro-1H-cyclopenta[a]chrysen-9-yl)benzoic acid formation at 5 mg/kg, po administered via gavage by LC-MS/MS analysis; type: ADME, organism-based, Macaca fascicularis
[9] = Drug metabolism in human plasma assessed as (2S,3S,4S,5R,6S)-6-[4-[(1R,3aS,5aR,5bR,7aR,11aS,11bR,13aR,13bR)-3a-[2-(1,1-dioxo-1,4-thiazinan-4-yl)ethylamino]-1-isopropenyl-5a,5b,8,8,11a-pentamethyl-1,2,3,4,5,6,7,7a,11,11b,12,13,13a,13b-tetradecahydrocyclopenta[a]chrysen-9-yl]benzoyl]oxy-3,4,5-trihydroxy-tetrahydropyran-2-carboxylic acid formation at 5 mg/kg, po administered via gavage by LC-MS/MS analysis; type: ADME, organism-based
[10] = Drug metabolism in Sprague-Dawley rat plasma assessed as (2S,3S,4S,5R,6S)-6-[4-[(1R,3aS,5aR,5bR,7aR,11aS,11bR,13aR,13bR)-3a-[2-(1,1-dioxo-1,4-thiazinan-4-yl)ethylamino]-1-isopropenyl-5a,5b,8,8,11a-pentamethyl-1,2,3,4,5,6,7,7a,11,11b,12,13,13a,13b-tetradecahydrocyclopenta[a]chrysen-9-yl]benzoyl]oxy-3,4,5-trihydroxy-tetrahydropyran-2-carboxylic acid formation at 5 mg/kg, po administered via gavage by LC-MS/MS analysis; type: ADME, organism-based
[11] = Drug metabolism in beagle dog plasma assessed as (2S,3S,4S,5R,6S)-6-[4-[(1R,3aS,5aR,5bR,7aR,11aS,11bR,13aR,13bR)-3a-[2-(1,1-dioxo-1,4-thiazinan-4-yl)ethylamino]-1-isopropenyl-5a,5b,8,8,11a-pentamethyl-1,2,3,4,5,6,7,7a,11,11b,12,13,13a,13b-tetradecahydrocyclopenta[a]chrysen-9-yl]benzoyl]oxy-3,4,5-trihydroxy-tetrahydropyran-2-carboxylic acid formation at 5 mg/kg, po administered via gavage by LC-MS/MS analysis; type: ADME, organism-based, Canis lupus familiaris
[12] = Drug metabolism in cynomolgus monkey plasma assessed as (2S,3S,4S,5R,6S)-6-[4-[(1R,3aS,5aR,5bR,7aR,11aS,11bR,13aR,13bR)-3a-[2-(1,1-dioxo-1,4-thiazinan-4-yl)ethylamino]-1-isopropenyl-5a,5b,8,8,11a-pentamethyl-1,2,3,4,5,6,7,7a,11,11b,12,13,13a,13b-tetradecahydrocyclopenta[a]chrysen-9-yl]benzoyl]oxy-3,4,5-trihydroxy-tetrahydropyran-2-carboxylic acid formation at 5 mg/kg, po administered via gavage by LC-MS/MS analysis; type: ADME, organism-based, Macaca fascicularis

Measured: Drug metabolism

C=C(C)[C@@H]1CC[C@]2(NCCN3CCS(=O)(=O)CC3)CC[C@]3(C)[C@H](CC[C@@H]4[C@@]5(C)CC=C(c6ccc([14C](=O)O)cc6)C(C)(C)[C@@H]5CC[C@]43C)[C@@H]12
Metabolite_Detected: all assays above
